Earlier results, collected in patent US20170000414A1, “Use of Blood Flow Parameters to Monitor or Control the Dosing of Anti-Platelet Agents” (RHEOVECTOR, LLC, priority 2014, published 2017).

What was measured:
[1] = aspirin 81 mg; healthy individuals
[2] = 18,624 patients having prior acute coronary syndrome

CC(=O)Oc1ccccc1C(=O)O [Aspirin, acetylsalicylic acid]
effect on blood viscosity [1]: no significant effect

CCCSc1nc(N[C@@H]2C[C@H]2c2ccc(F)c(F)c2)c2nnn([C@@H]3C[C@H](OCCO)[C@@H](O)[C@H]3O)c2n1 [Ticagrelor]
rate of cardiovascular disease (CVD) events and death compared with clopidogrel [2]: reduce significantly

COC(=O)[C@H](c1ccccc1Cl)N1CCc2sccc2C1 [clopidogrel]
reducing CVD events or death, compared with aspirin 325 mg (clopidogrel 75 mg, 19,185 patients with atherosclerosis (symptomatic PAD, recent ischemic stroke or MI)): more effective | relative risk reduction (group entering the trial with symptomatic PAD, p=0.0028): 23.8% | reduction in MI, stroke or cardiovascular death rates (patients who entered the trial with an ischemic stroke or MI): no reduction
